The text below walks through data of patent US20090137628A1, “Formulations of Indanylamines and the Use Thereof as Local Anesthetics and as Medication for Chronic Pain” (BRIDGE PHARMA, INC., priority 2005, published 2009).

For data set [1], the system named is Na+ channel (site 2) in the rat cerebral cortex. Particulars: 10 nM [3H]batrachotoxin, 60 min at 22° C., rat cerebral cortex membranes; read-out: IC50-values for inhibition of batrachotoxinin binding.
Data set [2] has as its system guinea pigs. Briefly: Dermal anesthetic activity after dermal application, pinprick method (algesimeter). Format: in vivo, guinea pig. Particulars: highest score over time after patch removal, 5.0% solution. How it is done:
The purpose of this study was to determine the degree to which various salt forms of LAC-34 contribute to the local dermal anesthetic effect of the compound, following dermal application to guinea pigs.
Four groups of six male guinea pigs received a dose of 2.0 ml of a 5.0% solution of four test articles (LAC-34 base, LAC-34 mono-HCl, LAC-34-di HCl and LAC-34 mesylate) that had been applied onto a two inch square, 4 layer thick gauze pad on depilated dosal skin of each guinea pig. Similarly, one group of guinea pigs received the vehicle, which consisted of DMSO/water (90 percent/10 percent, v/v) and served as the control group. The gauze was occluded and the guinea pigs were wrapped for 30 min. Animals were assessed for initial pain reaction (anesthetic depth) at 15 minute intervals up to 3 hours and at 24 hours. An algesimeter, set at 10 g, was employed to assess the onset and depth of anesthesia using the pinprick method causing a twitch response or non-response. The “Average Anesthetic Score” was defined as number of probings not producing a dermal twitch response. Thus, a situation where there were no dermal twitch responses to six probings represent a maximal anesthetic effect and is denoted as an Average Anesthetic Score of 6.

The subject of data set [3] is animal models of neuropathic pain. As to the kind of experiment: Animal models of neuropathic pain. Format: in vivo. Particulars: potentiated by addition of capsaicin.
The nature of data set [4]: Saturation solubility in key solvents for dermal drug delivery. Format: physicochemical. The procedure:
A liquid's capability to solubilize LAC-34 was screened by adding a known mass of LAC-34 to a known volume/mass of liquid. Saturation solubility was measured by adding an excess of drug substance and allowing the suspension to equilibrate while stirring for 2-3 days. A sample of the suspension was filtered though a 0.2 μm PTFE membrane followed by dilution (if required) and HPLC analysis. For several mixed solvent systems that included water, a known mass of drug substance was dissolved in a known mass of solvent(s). This solution was then titrated with water while stirring until the solution became cloudy.
HPLC analysis was performed with a HP 1050 system (He degasser, quaternary pump, auto-injector, and variable wavelength detector). The column heater was manufactured by Waters. Data collection and analysis was performed using Chemstation® software.
The saturation solubility of LAC-34 was measured in capric/caprylic triglycerides (CCT), dimethylsulfoxide (DMSO), ethanol, isopropanol, isopropyl myristate (IPM), pentane, propylene glycol (PG), and water. […]
All of the solvents, with the exception of water, were able to dissolve large quantities of LAC-34. […] Propylene glycol (PG), which has multiple actions for dermal drug delivery (see Table 1), was also able to solubilize significant quantities of LAC-34. […]

The nature of data set [5]: Physical state of LAC-34 solutions at 4° C. Particulars: 20% LAC-34 in benzyl alcohol. It is filed as physicochemical.
Data set [6] in a line: Local vasodilatation at the dermal injection site. The following applies: contrary to lidocaine. It is filed as in vivo.
Data set [7] can be described thus: Solubility in ternary solvent mixture with water as anti-solvent. It is filed as physicochemical. The following applies: 150 mg LAC-34 free base; 1 ml polyethylene glycol + 1 ml ethanol + 0.6 ml water.

As to `c1ccc(N(CCC2CCCCN2)C2Cc3ccccc3C2)cc1` (racemic) [LAC-34, 2-[2-(N-Phenyl-N-2-indanyl)aminoethyl]piperidine], in data set [1], the IC50 amounted to 0.27 µM. In addition, the “Maximal depth of anesthesia (Average Anesthetic Score)” value in data set [2] is given as 4.8. Further, the Analgesic activity result in data set [3] is listed as “exerts analgesic activity”. The Solubility in isopropanol result in data set [4] (0.25 g LAC-34 solubilized once isopropanol level was 0.225 g) is “approximately 526 mg/mL”. For the same molecule, the “LAC-34 Solubility (saturation)” value in data set [4] (solvent as printed on the line: Propylene glycol (PG)) amounted to 5 µg/mL. For the same molecule, the “Physical state at 4° C.” value in data set [5] is reported as “still a solution”. Further, the “Local vasodilatation at the dermal injection site” value in data set [6] is reported as “not to cause local vasodilatation”. Moreover, the “Solubility in ternary solvent mixture” value in data set [7] is listed as 5.5 % (w/w).
